Measured values published in patent US9200001B2, “Triazolyl PDE10 inhibitors” (Merck Sharp & Dohme Corp., priority 2011, dated 2015).

Molecular target: human PDE10A2 (Homo sapiens (Human), UniProt Q9Y233)
Test: PDE10 fluorescence polarization (IMAP FP) inhibition assay
Type: biochemical
Details: FAM-labeled cAMP 50 nM, room temperature, read-out: PDE10a Ki
Outline: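 Cytoplasmic lysate of AD293 cells transiently expressing human PDE10A2, incubated 30 minutes at room temperature with 50 nM FAM-labeled cAMP in Tris pH 7.2 with MgCl2. Read by IMAP fluorescence polarization; 0% inhibition set by 1% DMSO, 100% by a reference PDE10 inhibitor.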

Chain of human PDE10A2 (Q9Y233 267-1055): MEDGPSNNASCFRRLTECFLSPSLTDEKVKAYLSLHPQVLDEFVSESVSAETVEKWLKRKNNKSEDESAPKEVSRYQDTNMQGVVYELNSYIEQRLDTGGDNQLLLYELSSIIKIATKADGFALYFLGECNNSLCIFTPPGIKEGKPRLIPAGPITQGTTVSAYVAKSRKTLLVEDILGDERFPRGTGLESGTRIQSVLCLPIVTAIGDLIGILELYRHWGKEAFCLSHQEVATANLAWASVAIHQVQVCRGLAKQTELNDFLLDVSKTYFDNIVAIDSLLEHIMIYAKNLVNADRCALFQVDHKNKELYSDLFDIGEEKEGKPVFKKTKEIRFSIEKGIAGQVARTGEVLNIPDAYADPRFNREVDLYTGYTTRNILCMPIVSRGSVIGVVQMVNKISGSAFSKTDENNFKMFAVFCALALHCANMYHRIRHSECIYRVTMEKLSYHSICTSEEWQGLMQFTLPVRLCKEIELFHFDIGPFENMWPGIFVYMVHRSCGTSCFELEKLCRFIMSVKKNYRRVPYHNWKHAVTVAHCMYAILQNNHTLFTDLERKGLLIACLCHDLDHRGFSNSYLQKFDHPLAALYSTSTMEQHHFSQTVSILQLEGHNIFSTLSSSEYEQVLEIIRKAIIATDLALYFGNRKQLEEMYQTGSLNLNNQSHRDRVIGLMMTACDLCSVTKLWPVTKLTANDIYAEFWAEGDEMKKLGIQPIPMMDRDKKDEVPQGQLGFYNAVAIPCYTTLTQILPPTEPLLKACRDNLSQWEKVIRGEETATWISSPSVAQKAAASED

SMILES	Ki
Cc1nc([C@H]2C[C@@H]2c2nc3ncccc3n2C)cc(-n2nc(C)nc2C)n1 (stereo in doubt) [Cpd 80, 2-{2-[6-(3,5-dimethyl-1H-1,2,4-triazol-1-yl)-2-methylpyrimidin-4-yl]cyclopropyl}-1-methyl-1H-imidazo[4,5-b]pyridine]	> 75 nM
Cc1nc([C@@H]2C[C@H]2c2ccc3ccccc3n2)cc(-n2nc(C)nc2C)n1 (relative stereo) [Cpd 127, trans-2-{2-[6-(3,5-dimethyl-1H-1,2,4-triazol-1-yl)-2-methylpyrimidin-4-yl]cyclopropyl}quinoline]	6 nM
Cc1nc(C2CC2c2nc3cccc(C)c3[nH]2)cc(-n2nc(C)nc2C)n1 (stereo not shown) [Cpd 55, 2-(2-(6-(3,5-dimethyl-1H-1,2,4-triazol-1-yl)-2-methylpyrimidin-4-yl)cyclopropyl)-7-methyl-1H-benzo[d]imidazole]	16.8 nM
Cc1nc(C)n(-c2cc([C@H]3C[C@@H]3c3nc4ccccc4n3C)cnn2)n1 (relative stereo) [Cpd 128, trans-2-{2-[6-(3,5-dimethyl-1H-1,2,4-triazol-1-yl)pyridazin-4-yl]cyclopropyl}-1-methyl-1H-benzimidazole]	38 nM
Cc1nc(C2CC2c2nnc(C)s2)cc(-n2nc(C)nc2C)n1 (stereo not shown) [Cpd 40, 2-(2-(6-(3,5-dimethyl-1H-1,2,4-triazol-1-yl)-2-methylpyrimidin-4-yl)cyclopropyl)-5-methyl-1,3,4-thiadiazole]	124 nM
COc1ccc(Cc2nc(C)nn2-c2cc(C3CC3c3nc(C)no3)nc(C)n2)cc1OC (stereo not shown) [Cpd 24, 5-(2-(6-(5-(3,4-dimethoxybenzyl)-3-methyl-1H-1,2,4-triazol-1-yl)-2-methylpyrimidin-4-yl)cyclopropyl)-3-methyl-1,2,4-oxadiazole]	248 nM
Cc1nc(C2CC2c2nnc(C)o2)cc(-n2nc(C)nc2C)n1 (stereo not shown) [Cpd 39, 3,5-dimethyl-1-(2-methyl-6-(2-(5-methyl-1,3,4-oxadiazol-2-yl)cyclopropyl)pyrimidin-4-yl)-1H-1,2,4-triazol-4-ium]	918 nM
Cc1nc([C@@H]2C[C@H]2c2nc3ccccc3n2Cc2ccncc2)cc(-n2nc(C)nc2C)n1 (stereo in doubt) [Cpd 76, 2-{2-[6-(3,5-dimethyl-1H-1,2,4-triazol-1-yl)-2-methylpyrimidin-4-yl]cyclopropyl}-1-(pyridin-4-ylmethyl)-1H-benzimidazole]	18.3 nM
Cc1nc(C)n(-c2cc([C@H]3C[C@@H]3c3nc4ccccc4n3C)nc(NC(C)C)n2)n1 (relative stereo) [Cpd 115, trans-4-(3,5-dimethyl-1H-1,2,4-triazol-1-yl)-6-[2-(1-methyl-1H-benzimidazol-2-yl)cyclopropyl]-N-(1-methylethyl)pyrimidin-2-amine]	1.9 nM
Cc1nc([C@@H]2C[C@H]2c2nc3ccccc3n2Cc2cccnc2)cc(-n2nc(C)nc2C)n1 (stereo in doubt) [Cpd 74, 2-{2-[6-(3,5-dimethyl-1H-1,2,4-triazol-1-yl)-2-methylpyrimidin-4-yl]cyclopropyl}-1-(pyridin-3-ylmethyl)-1H-benzimidazole]	9.9 nM
Cc1nc([C@@H]2C[C@H]2c2nc3ccccc3n2C)cc(-n2nc(C)nc2C2CCOCC2)n1 [Cpd 97, 1-methyl-2-[(1R,2R)-2-{2-methyl-6-[3-methyl-5-(tetrahydro-2H-pyran-4-yl)-1H-1,2,4-triazol-1-yl]pyrimidin-4-yl}cyclopropyl]-1H-benzimidazole]	1.1 nM
CO[C@@H](C)c1nc(C)nn1-c1cc([C@@H]2C[C@H]2c2nc3ccccc3n2C)nc(C)n1 [Cpd 95, 2-[(1R,2R)-2-(6-{5-[(1S)-1-methoxyethyl]-3-methyl-1H-1,2,4-triazol-1-yl}-2-methylpyrimidin-4-yl)cyclopropyl]-1-methyl-1H-benzimidazole]	2.1 nM
Cc1nc(C)n(-c2cc([C@@H]3C[C@H]3c3nc4ccccc4n3C)nc(OC3CCC3)n2)n1 [Cpd 136, 2-((1R,2R)-2-(2-cyclobutoxy-6-(3,5-dimethyl-1H-1,2,4-triazol-1-yl)pyrimidin-4-yl)cyclopropyl)-1-methyl-1H-benzo[d]imidazole]	0.42 nM
Cc1nc(CCc2ccc3ncccc3n2)cc(-n2nc(C)nc2C)n1 [Cpd 99, 2-{2-[6-(3,5-dimethyl-1H-1,2,4-triazol-1-yl)-2-methylpyrimidin-4-yl]ethyl}-1,5-naphthyridine]	73 nM
Cc1nc([C@@H]2C[C@H]2c2nc3ccccc3n2C)cc(-n2nc(C)nc2CF)n1 [Cpd 93, 2-[(1R,2R)-2-{6-[5-(fluoromethyl)-3-methyl-1H-1,2,4-triazol-1-yl]-2-methylpyrimidin-4-yl}cyclopropyl]-1-methyl-1H-benzimidazole]	3.1 nM
Cc1nc([C@@H]2C[C@H]2c2nc3ccccc3n2CC2CCCCO2)cc(-n2nc(C)nc2C)n1 (stereo in doubt) [Cpd 70, 2-{2-[6-(3,5-dimethyl-1H-1,2,4-triazol-1-yl)-2-methylpyrimidin-4-yl]cyclopropyl}-1-(tetrahydro-2H-pyran-2-ylmethyl)-1H-benzimidazole]	6 nM
Cc1nc([C@@H]2C[C@H]2c2nc3ccccc3n2C)cc(-n2nc(Br)nc2C)n1 [Cpd 88, 2-{(1R,2R)-2-[6-(3-bromo-5-methyl-1H-1,2,4-triazol-1-yl)-2-methylpyrimidin-4-yl]cyclopropyl}-1-methyl-1H-benzimidazole]	2 nM
Cc1nc([C@H]2C[C@@H]2c2nc3ccccc3s2)cc(-n2nc(C)nc2C)n1 [Cpd 104, 2-{(1S,2S)-2-[6-(3,5-dimethyl-1H-1,2,4-triazol-1-yl)-2-methylpyrimidin-4-yl]cyclopropyl}-1,3-benzothiazole]	69.5 nM
Cc1nc(C)n(-c2cc([C@H]3C[C@@H]3c3nc4ccccc4n3C)nc(N)n2)n1 (relative stereo) [Cpd 123, trans-4-(3,5-dimethyl-1H-1,2,4-triazol-1-yl)-6-[2-(1-methyl-1H-benzimidazol-2-yl)cyclopropyl]pyrimidin-2-amine]	4.2 nM
Cc1nc(C)n(-c2cc([C@H]3C[C@@H]3c3nc4ccccc4n3C)nc(N3CCN(C)CC3)n2)n1 (relative stereo) [Cpd 121, trans-2-{2-[6-(3,5-dimethyl-1H-1,2,4-triazol-1-yl)-2-(4-methylpiperazin-1-yl)pyrimidin-4-yl]cyclopropyl}-1-methyl-1H-benzimidazole]	3.1 nM
Cc1nc([C@H]2C[C@@H]2c2nc3ccccc3n2C)cc(-n2nc(C)nc2CN(C)C)n1 (stereo in doubt) [Cpd 87, N,N-dimethyl-1-(3-methyl-1-{2-methyl-6-[2-(1-methyl-1H-benzimidazol-2-yl)cyclopropyl]pyrimidin-4-yl}-1H-1,2,4-triazol-5-yl)methanamine]	10.6 nM

The next lines start with the values.

Ki	SMILES
0.75 nM	Cc1nc(C)n(-c2cc([C@@H]3C[C@H]3c3nc4ccccc4n3C)nc(N3CC(F)(F)C3)n2)n1 [Cpd 132, 2-((1R,2R)-2-(2-(3,3-difluoroazetidin-1-yl)-6-(3,5-dimethyl-1H-1,2,4-triazol-1-yl)pyrimidin-4-yl)cyclopropyl)-1-methyl-1H-benzo[d]imidazole]
1.1 nM	Cc1nc(C)n(-c2cc([C@H]3C[C@@H]3c3nc4ccccc4n3C)nc(OCC3CC3)n2)n1 (relative stereo) [Cpd 120, trans-2-{2-[2-(cyclopropylmethoxy)-6-(3,5-dimethyl-1H-1,2,4-triazol-1-yl)pyrimidin-4-yl]cyclopropyl}-1-methyl-1H-benzimidazole]
0.11 nM	COc1ccc(Cc2nc(C)nn2-c2cc(/C=C/c3ccc(C)cn3)nc(C)n2)cc1OC [Cpd 20, (E)-4-(5-(3,4-dimethoxybenzyl)-3-methyl-1H-1,2,4-triazol-1-yl)-2-methyl-6-(2-(5-methylpyridin-2-yl)vinyl)pyrimidine]
0.9 nM	COC[C@H](C)Oc1nc([C@@H]2C[C@H]2c2nc3ccccc3n2C)cc(-n2nc(C)nc2C)n1 [Cpd 67, 2-[(1R,2R)-2-{6-(3,5-dimethyl-1H-1,2,4-triazol-1-yl)-2-[(1S)-2-methoxy-1-methylethoxy]pyrimidin-4-yl]cyclopropyl}-1-methyl-1H-benzimidazole]
1.1 nM	Cc1nc(C)n(-c2cc([C@@H]3C[C@H]3c3nc4ccccc4n3C)nc(N3CC(C)(O)C3)n2)n1 [Cpd 135, 1-(4-(3,5-dimethyl-1H-1,2,4-triazol-1-yl)-6-((1R,2R)-2-(1-methyl-1H-benzo[d]imidazol-2-yl)cyclopropyl)pyrimidin-2-yl)-3-methylazetidin-3-ol]
0.005 nM	COc1ccc(Cc2nc(C)nn2-c2cc(C3CC3c3nc4ccccc4[nH]3)nc(C)n2)cc1OC (stereo not shown) [Cpd 38, 2-(2-(6-(5-(3,4-dimethoxybenzyl)-3-methyl-1H-1,2,4-triazol-1-yl)-2-methylpyrimidin-4-yl)cyclopropyl)-1H-benzo[d]imidazole]
0.5 nM	COc1ccc(Cc2nc(C)nn2-c2cc(C3CC3c3cc4n(n3)CCC4)nc(C)n2)cc1OC (stereo not shown) [Cpd 42, 2-(2-(6-(5-(3,4-dimethoxybenzyl)-3-methyl-1H-1,2,4-triazol-1-yl)-2-methylpyrimidin-4-yl)cyclopropyl)-5,6-dihydro-4H-pyrrolo[1,2-b]pyrazole]
0.82 nM	COc1ccc(Cc2nc(C)nn2-c2cc(C#Cc3ccc4ncccc4n3)nc(C)n2)cc1OC [Cpd 14, 2-((6-(5-(3,4-dimethoxybenzyl)-3-methyl-1H-1,2,4-triazol-1-yl)-2-methylpyrimidin-4-yl)ethynyl)-1,5-naphthyridine]
0.39 nM	COc1ccc(C2CC2c2cc(-n3nc(C)nc3Cc3ccc(OC)c(OC)c3)nc(C)n2)nc1 (stereo not shown) [Cpd 43, 4-(5-(3,4-dimethoxybenzyl)-3-methyl-1H-1,2,4-triazol-1-yl)-6-(2-(5-methoxypyridin-2-yl)cyclopropyl)-2-methylpyrimidine]
0.84 nM	Cc1nc(C)n(-c2cc([C@@H]3C[C@H]3c3nc4ccccc4n3C)nc(OCC3(C)CC3)n2)n1 [Cpd 137, 2-((1R,2R)-2-(6-(3,5-dimethyl-1H-1,2,4-triazol-1-yl)-2-((1-methylcyclopropyl)methoxy)pyrimidin-4-yl)cyclopropyl)-1-methyl-1H-benzo[d]imidazole]
